These results are taken from ChEMBL document CHEMBL1142712, “Identification of small molecule chemical inhibitors of the collagen-specific chaperone Hsp47” (J Med Chem, 2005).

The target in the assay is T1, Serpin H1 (Homo sapiens, UniProt P50454).
T1 sequence (P50454 whole entry): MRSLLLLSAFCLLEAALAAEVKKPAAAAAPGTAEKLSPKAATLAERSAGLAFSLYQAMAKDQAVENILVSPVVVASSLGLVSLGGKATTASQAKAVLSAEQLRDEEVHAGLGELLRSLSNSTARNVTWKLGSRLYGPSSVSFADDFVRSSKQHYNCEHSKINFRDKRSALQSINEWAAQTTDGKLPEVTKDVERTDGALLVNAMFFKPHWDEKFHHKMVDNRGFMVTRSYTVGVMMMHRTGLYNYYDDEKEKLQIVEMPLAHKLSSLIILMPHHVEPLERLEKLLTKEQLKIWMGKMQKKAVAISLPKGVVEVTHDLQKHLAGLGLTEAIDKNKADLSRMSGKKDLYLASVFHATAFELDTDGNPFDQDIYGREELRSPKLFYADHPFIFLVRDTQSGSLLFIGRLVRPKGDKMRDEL
Briefly: Inhibitory concentration against Hsp47 collagen chaperone in turbidity assay.
As usually defined, the IC50 is the concentration at which inhibition is half-maximal. For the compound `COc1ccc(C(C[N+](=O)[O-])Sc2ccc(N)cc2)cc1` (centres undefined), the IC50 came out at 26.6 µM.

`Nc1ccc(SC(C[N+](=O)[O-])c2ccc(F)cc2)cc1` (centres undefined): the 50% inhibitory concentration (IC50) was 26.6 µM.

Consider `Cc1cc(C(=O)CSc2nc(O)c(C#N)c(-c3cccs3)n2)ccc1Cl`, for which the IC50 was 6.3 µM. This IC50 is about 4.2-fold lower than that of the compound before. With `COC(=O)c1cc(Cl)cc2c1N[S+]([O-])S2` (centres undefined), the IC50 came out at 3.1 µM.
